One series deals with AsPC-1. Put plainly: MTT cell viability assay, AsPC-1. Format: cell-based. The settings on record: for IC50: Homo sapiens, ASPC1, AsPC-1 pancreatic cancer, MTT, 72 h; for Selectivity Index (SI): IC50 in normal (HFF-1) fibroblast cells/IC50 in AsPC-1. How it is done:
(§1) Compounds 4a–p were submitted to a preliminary MTT assay at a one-point screening concentration of 75 μM for 72 h, including 2b as a reference compound (Figure 3). […] The presence of the electron-donating methoxy group decreased the activity of 2b, in both the para and meta positions. […] Specifically, these compounds, namely 4d, 4e, 4f, 4h, 4i, 4j, 4k, 4l, and 4m, were tested at concentrations of 3, 6, 12 and 24 µM for 72 h. In addition, the nine compounds, together with 2b, were tested against human fibroblasts HFF-1, in order to evaluate their selectivity against tumor cells, as compared to normal cells. Effects on cancer or normal cell viability were extrapolated from concentration–response curves and are expressed as IC50 values in Table 2.
(§2) Pancreatic cancer (AsPC-1, BxPC-3, and Capan-2), paraganglioma (PTJ86i and PTJ64i) and normal fibroblast (HFF-1) cell lines were cultured as previously described. All compounds were dissolved in DMSO (stock solutions) and then diluted in culture media to the final working concentrations. In this way, the solutions were completely clear and devoid of any undissolved material by microscopic inspection. […] The effects of compounds 4a-p and 2b on cancer cell viability were tested by an MTT assay (Sigma-Aldrich, St. Louis, MO, USA), as described by Florio et al.. In the initial screening all compounds were tested at a one-point screening concentration of 75 μM for 72 h (five replica wells per each condition). […] For combined treatments, the experimental design was made according to the Chou–Talalay method for drug combination studies, as previously described.
(§3) IC50 values were extrapolated from concentration–response curves and calculated using the CompuSyn software. […] Based on this analysis, a CI < 1 indicates synergism, a CI = 1 indicates additive effects and a CI > 1 indicates antagonism. SI values were calculated as previously described. Comparisons of mean values were performed using an unpaired Student’s t-test. For multiple comparisons, a one-way ANOVA followed by Dunnett’s test were employed. A p-value < 0.05 was estimated as statistically significant.
On the technique in general: Formazan colour is commonly taken as a measure of viable cells.

The next series deals with BxPC-3. The series is described as follows: MTT cell viability assay, BxPC-3. Format: cell-based. The settings on record: for IC50: Homo sapiens, BxPC-3 pancreatic cancer, MTT, 72 h; for Selectivity Index (SI): IC50 in normal (HFF-1) fibroblast cells/IC50 in BxPC-3. As for the experimental part: as §1, §2, §3
In a further series the test system is Capan-2. Put plainly: MTT cell viability assay, Capan-2. The format is cell-based. The settings on record: for IC50: Homo sapiens, Capan-2 pancreatic cancer, MTT, 72 h; for Selectivity Index (SI): IC50 in normal (HFF-1) fibroblast cells/IC50 in Capan-2. How it is done: as §1, §2, §3
In series [1] the test system is PTJ64i. Put plainly: MTT cell viability assay, PTJ64i. Format: cell-based. Particulars: for Selectivity Index (SI): IC50 in normal (HFF-1) fibroblast cells/IC50 in PTJ64i; for IC50: PTJ64i paraganglioma, MTT, 72 h. As for the experimental part:
as §1, §2, §3

The subject of series [2] is PTJ86i. Put plainly: MTT cell viability assay, PTJ86i. Format: cell-based. Particulars: for Selectivity Index (SI): IC50 in normal (HFF-1) fibroblast cells/IC50 in PTJ86i; for IC50: PTJ86i paraganglioma, MTT, 72 h. As for the experimental part:
as §1, §2, §3

A further series has as its system HFF-1. The series is described as follows: MTT cell viability assay, normal fibroblasts HFF-1. The format is cell-based, human. Particulars: Homo sapiens; HFF-1 normal cells, MTT, 72 h.
In series [3] the test system is pancreatic (AsPC-1, BxPC-3, and Capan-2) and paraganglioma (PTJ64i and PTJ86i) cancer cell lines. The series is described as follows: One-point MTT screening at 75 µM in cancer cell lines. The settings on record: one-point screening concentration of 75 μM for 72 h, five cancer cell lines. Format: cell-based. How it is done:
as §1, §2
Figure 3 Screening of the effects of novel derivatives (4a–p) on the viability of pancreatic (AsPC-1, BxPC-3, and Capan-2) and paraganglioma (PTJ64i and PTJ86i) cancer cell lines. The lead compound 2b was included as a reference and the histograms show the relative decrease of cancer cell viability observed after treatments, as compared to 2b. Cell viability was assessed by an MTT assay using compounds at 75 µM for 72 h. Data shown are the means ± SD of duplicate experiments with quintuplicate determinations and are calculated as ratios relative to the reference compound 2b (dashed line).

Series [4] relates to PTJ64i. Set-up: method as in PMID 28594934. The settings on record: PTJ64i paraganglioma, previously published; cited from earlier work.
Series [5] relates to PTJ86i. Also on record: method as in PMID 28594934. The settings on record: PTJ86i paraganglioma, previously published; cited from earlier work.

This is an account of results in paper PMC9412555, “Benzothiazole Derivatives Endowed with Antiproliferative Activity in Paraganglioma and Pancreatic Cancer Cells: Structure–Activity Relationship Studies and Target Prediction Analysis” (Pharmaceuticals, 2022).

Like-named read-outs stand apart in the source and are kept apart here.

Usually IC50 stands for the concentration at which inhibition is half-maximal. As a reminder, the melting point is the temperature of the solid-liquid transition.

Experimental for HFF-1: All compounds were dissolved in DMSO (stock solutions) and then diluted in culture media to the final working concentrations. […] The effects of compounds 4a-p and 2b on cancer cell viability were tested by an MTT assay (Sigma-Aldrich, St. Louis, MO, USA), as described by Florio et al. [17]. In the initial screening all compounds were tested at a one-point screening concentration of 75 μM for 72 h (five replica wells per each condition).
IC50 values were extrapolated from concentration–response curves and calculated using the CompuSyn software [45]. […] SI values were calculated as previously described [46]. Comparisons of mean values were performed using an unpaired Student’s t-test. For multiple comparisons, a one-way ANOVA followed by Dunnett’s test were employed. A p-value < 0.05 was estimated as statistically significant.

Molecule `O=C(Nc1ccc([N+](=O)[O-])cc1)C(Sc1nc2cc(Cl)ccc2s1)c1ccccc1` (stereo not drawn) [4e, 2-[(5-Chlorobenzo[d]thiazol-2-yl)thio]-N-(4-nitrophenyl)-2-phenylacetamide] gave a melting point of 191 to 193 °C. In addition, in the series on AsPC-1, the IC50 amounted to 12.8 µM and the “Selectivity Index (SI)” value is 1.31. Further, in the series with BxPC-3, the IC50 is 10.7 µM and the “Selectivity Index (SI)” value came to 1.56. Also, in the series with Capan-2, the IC50 amounted to 14.1 µM and the “Selectivity Index (SI)” value came out at 1.18. Further, in the series on PTJ64i [1], the “Selectivity Index (SI)” value came out at 1.70 and the IC50 worked out at 9.81 µM. Further, in the series with PTJ86i [2], the “Selectivity Index (SI)” value turned out to be 0.88 and the IC50 was found to be 18.9 µM. Further, it took 16.7 µM to reach half-maximal inhibition in the series on HFF-1 (IC50). The “effect on cancer cell viability, potency compared with 2b” value (“effect … compared with 2b” below) in series [3] was “greater antiproliferative activity than 2b”.
For the molecule `CC(=O)Nc1ccc(NC(=O)C(Sc2nc3cc(Cl)ccc3s2)c2ccccc2)cc1` (stereo not drawn) [4f, N-(4-Acetamidophenyl)-2-[(5-chlorobenzo[d]thiazol-2-yl)thio]-2-phenylacetamide], the melting point is 243 °C (dec.). Also, in the series with AsPC-1, the IC50 was determined as 10 µM and the “Selectivity Index (SI)” value was found to be 0.65. Further, in the series on BxPC-3, the IC50 was 18.9 µM and the “Selectivity Index (SI)” value worked out at 0.35. In the series with Capan-2, the IC50 stood at 20.1 µM and the “Selectivity Index (SI)” value is 0.33. In the series with PTJ64i [1], the “Selectivity Index (SI)” value was determined as 0.53 and the IC50 worked out at 12.3 µM. For the same molecule, in the series on PTJ86i [2], the “Selectivity Index (SI)” value was found to be 0.51 and the IC50 turned out to be 12.8 µM. Besides, the IC50 in the series with HFF-1 came to 6.54 µM. Also, in series [3], the “effect … compared with 2b” value is reported as “greater antiproliferative activity than 2b”.
`O=C(Nc1cccc(F)c1)C(Sc1nc2cc(Cl)ccc2s1)c1ccccc1` (stereo not drawn) [4i, 2-[(5-Chlorobenzo[d]thiazol-2-yl)thio]-N-(3-fluorophenyl)-2-phenylacetamide] displayed a melting point of 151 to 153 °C. In the series on AsPC-1, the IC50 stood at 14.8 µM and the “Selectivity Index (SI)” value was 1.01. In addition, in the series on BxPC-3, the IC50 was 18.6 µM and the “Selectivity Index (SI)” value was 0.81. In the series with Capan-2, the half-inhibitory concentration (IC50) amounted to 28.5 µM and the “Selectivity Index (SI)” value was 0.53. Besides, in the series on PTJ64i [1], the “Selectivity Index (SI)” value turned out to be 1.74 and the IC50 was 8.6 µM. In the series on PTJ86i [2], the “Selectivity Index (SI)” value is 1.28 and the IC50 was 11.7 µM. Moreover, half-maximal inhibition in the series on HFF-1 (IC50) was put at 15 µM. The “effect … compared with 2b” value in series [3] was “greater antiproliferative activity than 2b”.
Regarding `O=C(Nc1ccccc1)C(Sc1nc2cc(Cl)ccc2s1)c1ccccc1` (stereo not drawn) [2b, reference compound], the concentration for half-maximal inhibition (IC50) with AsPC-1 was 12.4 µM; in the series on BxPC-3, 15 µM; in the series with Capan-2, 19.7 µM; with HFF-1, 21.4 µM; in the series with PTJ64i [4], 8.49 µM; with PTJ86i [5] it was 16.7 µM. In addition, the “Selectivity Index (SI)” value is on record as 1.72 in the series on AsPC-1; 1.43 in the series with BxPC-3; 1.09 in the series on Capan-2; 2.52 in the series on PTJ64i [1]; 1.28 with PTJ86i [2].
Molecule `O=C(Nc1cccc([N+](=O)[O-])c1)C(Sc1nc2cc(Cl)ccc2s1)c1ccccc1` (stereo not drawn) [4k, 2-[(5-Chlorobenzo[d]thiazol-2-yl)thio]-N-(3-nitrophenyl)-2-phenylacetamide] came in with a melting point of 193 to 195 °C. Also, in the series on AsPC-1, the IC50 worked out at 10.1 µM and the “Selectivity Index (SI)” value is 2.31. In addition, in the series on BxPC-3, the IC50 turned out to be 11.9 µM and the “Selectivity Index (SI)” value turned out to be 1.96. Also, in the series with Capan-2, the IC50 was found to be 16.9 µM and the “Selectivity Index (SI)” value was found to be 1.38. Besides, in the series with PTJ64i [1], the “Selectivity Index (SI)” value stood at 3.12 and the IC50 is 7.47 µM. In the series on PTJ86i [2], the “Selectivity Index (SI)” value was found to be 1.73 and the IC50 is 13.5 µM. In the series with HFF-1, this molecule came in with an IC50 of 23.3 µM. The “effect … compared with 2b” value in [3] is “greater antiproliferative activity than 2b”.
